Values of other authors in patent publication US10596038B2, “Corneal denervation for treatment of ocular pain” (Journey1, Inc., priority 2009, dated 2020).

Conditions: after 24 hours

COc1cc(CNC(=O)CCCC/C=C/C(C)C)ccc1O [Capsaicin]
detectability in the blood: undetectable
